# Laboratory results taken from PMC7583961, “Development and Validation of an LC-MS/MS Assay to Quantitate 2′,4′,6′-Trihydroxyacetophenone in Rat and Dog Plasma and its Application to a Pharmacokinetic Study” (Molecules, 2020).
# Columns and labels:
# [1] = Stability of THAP stock solution at room temperature; type: physicochemical; settings: room temperature 7 h, n = 3
# Procedure: (§1) The stability of THAP in rat and dog plasma was examined under the following conditions at concentrations of 0.3, 25, and 80 µg/mL (n = 3): freeze-thaw stability after five freeze-thaw cycles at −70 °C; short-term stability at room temperature, 4 °C, and −70 °C for 7 h; autosampler stability at 10 °C for 44 h; and long-term stability at −70 °C for 56 days and 32 days in rat and dog plasma, respectively. The stability of the stock solution at low (0.3 µg/mL) and high (80 µg/mL) QC concentrations (n = 3) stored at room temperature for 7 h was also tested by comparing their peak areas to those of freshly prepared stock solutions.
# [2] = Stability of THAP in rat plasma; type: in vitro ADME; settings: for Plasma Stability (Mean %) Long-Term (−70 °C): 56 days; for Plasma Stability (Mean %) Long-Term (−70 °C) / Plasma Stability (Mean %) 4 °C (7 h) / Plasma Stability (Mean %) Autosampler (44 h, 10 °C) / Plasma Stability (Mean %) Freeze-Thaw Stability (5 Cycles) / Plasma Stability (Mean %) Room Temperature (7 h) / Plasma Stability (Mean %) −70 °C (7 h): n = 3
# Procedure: as §1
# [3] = Pharmacokinetic study of oral THAP IR or SR tablets in dogs (LC-MS/MS of plasma, noncompartmental analysis); type: in vivo; settings: male, beagle; for AUC(0-t) / Cmax / Tmax / half-life: dog, plasma, po, 500 mg, mean ± SD, n = 5
# Procedure: (§2) Healthy Sprague Dawley rats (n = 15, mean ± SD weight 261.4 ± 6.8 g) and beagle dogs (n = 10, mean ± SD weight 9.85 ± 0.60 kg) were purchased from Orient Bio Inc. (Seongnam, Korea). The animals were kept in a light-controlled room at 22 ± 2 °C with relative humidity of 55 ± 5% in the Animal Center of Korea Preclinical Center (Gyeonggi-do, Korea). The pharmacokinetic study protocols (KPC-E2019099 for rats and KPC-M2019046 for dogs) were approved by the Animal Care and Use Committee of the Korea Preclinical Center (Gyeonggi-do, Korea).
# (§3) Chromatographic separation was performed using an Agilent 1200 Series HPLC (Agilent Technologies, Inc., Palo Alto, CA, USA) system with a Gemini C18 column (50 × 2.0 mm, 3 µm, Phenomenex, Torrance, CA, USA) protected by a guard column at 40 °C. The mobile phase composed of 10 mM ammonium formate in water and methanol (10:90, v/v) was isocratically pumped into the HPLC system at a flow rate of 0.2 mL/min with a total run time of 2.5 min. The column was eluted into an API 4000 triple quadrupole mass spectrometer (Applied Biosystems, Framingham, Massachusetts, USA), operating in the multiple reaction monitoring (MRM) mode with a negative ion electrospray source. The optimized instrument settings were as follows: curtain gas flow of 20 L/h; collision gas flow of 6 L/h; ion source gas 1 pressure of 50 psi; ion source gas 2 pressure of 60 psi; ion spray voltage of −4500 V; and temperature of 500 °C. The precursor ions of THAP and IS were generated using declustering potentials of −100 and −75 V, respectively, and they were fragmented at a collision energy of −28 and −24 eV, respectively. The molecular mass transitions from precursor to product ion were optimized at m/z 166.89 > 82.8 for THAP and at 152.89 > 82.8 for IS. Data were processed using Analyst® program (Ver. 1.6.2, AB SCIEX, Toronto, ON, Canada).
# (§4) Plasma samples were stored in a deep freezer at −70 °C and thawed at room temperature. An aliquot of each plasma sample (10 μL) was transferred to 1.75 mL microtubes (Axygen Scientific, Inc., California, USA). In each microtube, 20 μL of IS (2 μg/mL) and 500 μL of 100% cold acetonitrile were added and then vortexed for 10 min. After centrifugation at 20,800× g for 15 min, 50 μL of the supernatant was pipetted into a 2.0 mL microtube and diluted with 350 μL of 50% acetonitrile (v/v). After being vortexed for 10 min and centrifuged at 20,800× g at 4 °C for 10 min, a 2 μL aliquot was injected into the LC-MS/MS system for quantitation.
# (§5) Male rats orally received a single dose of THAP (250, 500, or 750 mg/kg) dissolved in deionized water containing 2% CMC by gavages. Serial blood samples (0.22 mL each) were collected via the right jugular vein immediately before (0 h) and at 0.5, 1, 2, 3, 4, 6, 9, 12, 24, and 48 h (n = 5 per each sample time) post-dosing. Male dogs received a single oral dose of THAP tablet (500 mg) as either an immediate-release tablet (Group 1) or a sustained-release tablet (Group 2) (Table 5). Blood samples (1.0 mL) were drawn from a median vein of a forelimb at the following time points after the administration of THAP: 0.5, 1, 1.5, 2, 3, 4, 6, 8, 12, and 24 h (n = 5 per each sample time). After sampling blood from the animals, the cannula was flushed with an equal volume of heparinized saline solution (50 U/mL) to prevent coagulation and to replace the blood loss. Heparin was used as an anticoagulant throughout the study procedure. Plasma was harvested by centrifugation at 4 °C, 1700× g for 10 min and then stored at −70 °C before quantification. Noncompartmental analysis was performed to calculate the AUClast and T1/2 of THAP using WinNonlin version 8.1 (Pharsight Corporation, Mountain View, CA). The Cmax and Tmax of THAP were determined based on the individual plasma THAP concentration–time profiles.
# [4] = Pharmacokinetic study of orally administered THAP in rats (LC-MS/MS of plasma, noncompartmental analysis); type: in vivo, Sprague Dawley rats; settings: for AUC(0-t) / Cmax / Tmax / half-life: plasma, rat, mean ± SD, n = 5
# Procedure: as §2, §3, §4, §5
# [5] = Stability of THAP in dog plasma; type: in vitro ADME; settings: for Plasma Stability (Mean %) Long-Term (−70 °C): 32 days; for Plasma Stability (Mean %) Long-Term (−70 °C) / Plasma Stability (Mean %) 4 °C (7 h) / Plasma Stability (Mean %) Autosampler (44 h, 10 °C) / Plasma Stability (Mean %) Freeze-Thaw Stability (5 Cycles) / Plasma Stability (Mean %) Room Temperature (7 h) / Plasma Stability (Mean %) −70 °C (7 h): n = 3
# Procedure: as §1
# [6] = range over 0.3, 25 and 80 µg/mL
# [7] = oral 500 mg THAP immediate-release tablet (Group 1)
# [8] = oral 500 mg THAP sustained-release tablet (Group 2)
# [9] = male, Sprague Dawley, oral 250 mg/kg aqueous solution (Group 1)
# [10] = male, Sprague Dawley, oral 500 mg/kg aqueous solution (Group 2)
# [11] = male, Sprague Dawley, oral 750 mg/kg aqueous solution (Group 3)
smiles,measurement,setting,value
"CC(=O)c1c(O)cc(O)cc1O [THAP, 2′,4′,6′-trihydroxyacetophenone]",mean percentage peak area of stock solution vs freshly prepared stock solution,[1]; 0.3 µg/mL,102.15%
same,mean percentage peak area of stock solution vs freshly prepared stock solution,[1]; 80 µg/mL,100.92%
same,Plasma Stability (Mean %) Long-Term (−70 °C),[2]; nominal 0.3 µg/mL,111.67%
same,Plasma Stability (Mean %) 4 °C (7 h),[2]; nominal 0.3 µg/mL,99.22%
same,"Plasma Stability (Mean %) Autosampler (44 h, 10 °C)",[2]; nominal 0.3 µg/mL,105.00%
same,Plasma Stability (Mean %) Freeze-Thaw Stability (5 Cycles),[2]; nominal 0.3 µg/mL,101.00%
same,Plasma Stability (Mean %) Room Temperature (7 h),[2]; nominal 0.3 µg/mL,98.22%
same,Plasma Stability (Mean %) −70 °C (7 h),[2]; nominal 0.3 µg/mL,98.11%
same,Plasma Stability (Mean %) Long-Term (−70 °C),[2]; nominal 25 µg/mL,104.15%
same,Plasma Stability (Mean %) 4 °C (7 h),[2]; nominal 25 µg/mL,106.91%
same,"Plasma Stability (Mean %) Autosampler (44 h, 10 °C)",[2]; nominal 25 µg/mL,104.80%
same,Plasma Stability (Mean %) Freeze-Thaw Stability (5 Cycles),[2]; nominal 25 µg/mL,102.84%
same,Plasma Stability (Mean %) Room Temperature (7 h),[2]; nominal 25 µg/mL,101.62%
same,Plasma Stability (Mean %) −70 °C (7 h),[2]; nominal 25 µg/mL,109.87%
same,Plasma Stability (Mean %) Long-Term (−70 °C),[2]; nominal 80 µg/mL,99.39%
same,Plasma Stability (Mean %) 4 °C (7 h),[2]; nominal 80 µg/mL,100.98%
same,"Plasma Stability (Mean %) Autosampler (44 h, 10 °C)",[2]; nominal 80 µg/mL,100.58%
same,Plasma Stability (Mean %) Freeze-Thaw Stability (5 Cycles),[2]; nominal 80 µg/mL,99.62%
same,Plasma Stability (Mean %) Room Temperature (7 h),[2]; nominal 80 µg/mL,100.47%
same,Plasma Stability (Mean %) −70 °C (7 h),[2]; nominal 80 µg/mL,101.61%
same,long-term stability at −70 °C for 56 days,[2]; [6],99.39–111.67%
same,stability in the autosampler at 10 °C for 44 h,[2]; [6],100.58–105.00%
same,stability over five freeze-thaw cycles,[2]; [6],99.62–102.84%
same,AUC(0-t),[3]; [7],89.9 ± 32.8 µg·h/mL
same,Cmax,[3]; [7],24500 ± 5000 ng/mL
same,Tmax,[3]; [7],1 ± 1.1 h
same,half-life,[3]; [7],366 ± 276 min
same,AUC(0-t),[3]; [8],130 ± 49.4 µg·h/mL
same,Cmax,[3]; [8],18800 ± 8500 ng/mL
same,Tmax,[3]; [8],6 ± 1.6 h
same,half-life,[3]; [8],384 ± 96 min
same,concentration at 24 h,"[3]; dog plasma sample of R05, 24 h after oral administration of THAP 500 mg immediate-release tablet, read-out: measured plasma concentration of THAP",302 ng/mL
same,AUC(0-t),[4]; [9],80.9 ± 11.8 µg·h/mL
same,Cmax,[4]; [9],64.2 ± 16.3 µg/mL
same,Tmax,[4]; [9],30 min
same,half-life,[4]; [9],678 ± 54 min
same,AUC(0-t),[4]; [10],150 ± 35.8 µg·h/mL
same,Cmax,[4]; [10],81.3 ± 32.3 µg/mL
same,Tmax,[4]; [10],30 min
same,half-life,[4]; [10],498 ± 72 min
same,AUC(0-t),[4]; [11],302 ± 113 µg·h/mL
same,Cmax,[4]; [11],147 ± 44.6 µg/mL
same,Tmax,[4]; [11],30 min
same,half-life,[4]; [11],480 ± 90 min
same,concentration at 12 h,"[4]; male, Sprague Dawley, rat plasma sample of R06, 12 h after oral administration of THAP 500 mg/kg, read-out: measured plasma concentration of THAP",374 ng/mL
same,plasma THAP concentrations close to the peak concentration,"[4]; rats, THAP dose of 500 mg/kg and 750 mg/kg, above ULOQ",greater than 100 µg/mL
same,Plasma Stability (Mean %) Long-Term (−70 °C),[5]; nominal 0.3 µg/mL,102.89%
same,Plasma Stability (Mean %) 4 °C (7 h),[5]; nominal 0.3 µg/mL,111.89%
same,"Plasma Stability (Mean %) Autosampler (44 h, 10 °C)",[5]; nominal 0.3 µg/mL,99.67%
same,Plasma Stability (Mean %) Freeze-Thaw Stability (5 Cycles),[5]; nominal 0.3 µg/mL,101.33%
same,Plasma Stability (Mean %) Room Temperature (7 h),[5]; nominal 0.3 µg/mL,109.89%
same,Plasma Stability (Mean %) −70 °C (7 h),[5]; nominal 0.3 µg/mL,109.56%
same,Plasma Stability (Mean %) Long-Term (−70 °C),[5]; nominal 25 µg/mL,103.95%
same,Plasma Stability (Mean %) 4 °C (7 h),[5]; nominal 25 µg/mL,105.57%
same,"Plasma Stability (Mean %) Autosampler (44 h, 10 °C)",[5]; nominal 25 µg/mL,106.75%
same,Plasma Stability (Mean %) Freeze-Thaw Stability (5 Cycles),[5]; nominal 25 µg/mL,105.31%
same,Plasma Stability (Mean %) Room Temperature (7 h),[5]; nominal 25 µg/mL,106.66%
same,Plasma Stability (Mean %) −70 °C (7 h),[5]; nominal 25 µg/mL,105.88%
same,Plasma Stability (Mean %) Long-Term (−70 °C),[5]; nominal 80 µg/mL,99.45%
same,Plasma Stability (Mean %) 4 °C (7 h),[5]; nominal 80 µg/mL,98.87%
same,"Plasma Stability (Mean %) Autosampler (44 h, 10 °C)",[5]; nominal 80 µg/mL,97.58%
same,Plasma Stability (Mean %) Freeze-Thaw Stability (5 Cycles),[5]; nominal 80 µg/mL,98.41%
same,Plasma Stability (Mean %) Room Temperature (7 h),[5]; nominal 80 µg/mL,98.17%
same,Plasma Stability (Mean %) −70 °C (7 h),[5]; nominal 80 µg/mL,97.32%
same,long-term stability at −70 °C for 32 days,[5]; [6],99.45–103.95%
same,stability in the autosampler at 10 °C for 44 h,[5]; [6],97.58–106.75%
same,stability over five freeze-thaw cycles,[5]; [6],98.41–105.31%
